The subject of one assay is endogenous SREBPs. Briefly: Luciferase reporter assay (pSRE-Luc, normalized by β-gal) in HEK293 cells. Format: cell-based, human. The arrangement: Luc/Gal: dose or concentration left out as unconfirmed. The conditions noted are these: entries 1, 19-34 (FIG. 16); None = 15.0759. On the procedure:
On day 0, HEK293 cells were plated out in triplicate at a density of 5×10^3/well onto a 96-well plate in a Dulbecco's modified Eagle's medium with 10% fetal bovine serum, 100 units/mL penicillin, and 100 μg/mL streptomycin sulfate. On day 2, the cells were transiently co-transfected with the following plasmids by using Lipofectamine reagent (Invitrogen): 0.4 μg/well pSRE-Luc (an SRE-1-driven luciferase reporter construct; Hua et al., 1995 J Biol Chem 270, 29422-7), and 0.1 μg/well a b-gal reporter in which the expression of β-gal is controlled by an actin promoter in a final volume of […]. After incubation for 5 hrs at 37° C., the cells were washed with phosphate-buffered saline and then incubated in 100 μl of Dulbecco's modified Eagle's medium with 10% lipid-depleted serum, […] penicillin, and 100 μg/mL streptomycin sulfate in the absence or presence of fatostatin A. After 20 hrs of incubation, the cells in each well were lysed with 20 μL of 1× Reporter Lysis Buffer (Promega), and aliquots were used for measurement of luciferase (10 μL) and β-galactosidase (10 μL) activities. For luciferase assay, photon production was detected as counts per second in a Wallac 1420 ARVOsx multilabel counter (PerkinElmer). For β-galactosidase assays, hydrolysis of O-nitrophenyl-β-D-galactosidase was measured after incubation for 0.5 h at 37° C. by a microplate reader at the wave length of 405 nm (Tecan). The luciferase activity (counts per second) was normalized by the activity of β-galactosidase (OD units). For overexpression of the N-terminal matured form of SREBP-1c, pCMV-SREBP-1c (1-436) was co-transfected with pSRE-Luc. pSRE-Luc and pCMV-SREBP-1c (1-436) were provided by J. L. Goldstein (University of Texas Southwestern Medical Center). […]
A general note: In a reporter assay the amount or activity of a reporter protein is the signal.
As for `CCCc1cc(-c2nc(-c3ccc(Br)cc3)c(C(=O)O)s2)ccn1` [Compound 22, 4-(4-bromophenyl)-2-(2-propylpyridin-4-yl)thiazole-5-carboxylic acid], the Luc/Gal was 21.5911. `CCCc1cc(-c2nc(-c3ccc(OC)cc3)cs2)ccn1` [Compound 24, 4-(4-(4-methoxyphenyl)thiazol-2-yl)-2-propylpyridine] yielded a Luc/Gal of 11.0367. The same measure, in the same setting: for `CCCc1cc(-c2nc(-c3cccc(OC)c3)cs2)ccn1` [Compound 25, 4-(4-(3-methoxyphenyl)thiazol-2-yl)-2-propylpyridine] the value was 7.8536; for `Cc1ccc(-c2csc(-c3ccccc3)n2)cc1` [Compound 27, 2-phenyl-4-p-tolylthiazole], 13.8222; for `CCCc1cc(-c2nc(-c3cccc(O)c3)cs2)ccn1` [Compound 28, 3-(2-(2-propylpyridin-4-yl)thiazol-4-yl)phenol], 12.7791. On to `CCCc1cc(-c2nc(-c3ccccc3O)cs2)ccn1` [Compound 29, 2-(2-(2-propylpyridin-4-yl)thiazol-4-yl)phenol], for which the Luc/Gal is 8.2379. For the compound `CCCc1cc(-c2nc(-c3ccc(Br)cc3)c(C(=O)NC(C)C)s2)ccn1` [Compound 30, 4-(4-bromophenyl)-N-isopropyl-2-(2-propylpyridin-4-yl)thiazole-5-carboxamide], the Luc/Gal amounted to 16.0226. The same measure, in the same setting: for `Clc1ccc(-c2csc(-c3ccncc3)n2)cc1` [Compound 31, 4-(4-(4-chlorophenyl)thiazol-2-yl)pyridine] the value was 16.9971; for `CCc1cc(-c2nc(-c3ccc(Cl)cc3)cs2)ccn1` [Compound 32, 4-(4-(4-chlorophenyl)thiazol-2-yl)-2-ethylpyridine], 9.5798. On to `Clc1ccc(-c2csc(-c3ccccc3)n2)cc1` [Compound 33, 4-(4-chlorophenyl)-2-phenylthiazole], for which the Luc/Gal was 17.8175.

Still in this assay, the particulars now being: entries 1, 35-39 (FIG. 17); None = 18.
In turn, `CCCc1cc(-c2nc(-c3ccc(C)cc3)c(C(=O)O)s2)ccn1` [Compound 36, 2-(2-propylpyridin-4-yl)-4-p-tolylthiazole-5-carboxylic acid] displayed a Luc/Gal of 18.99. The same measure, in the same setting: for `CCc1cc(-c2nc(-c3ccc(C)cc3)cs2)ccn1` [Compound 37, 2-ethyl-4-(4-p-tolylthiazol-2-yl)pyridine] the value was 9.87; for `CCCc1cc(-c2nc(-c3ccccc3)c(C(=O)O)s2)ccn1` [Compound 38, 4-phenyl-2-(2-propylpyridin-4-yl)thiazole-5-carboxylic acid], 22.66; for `CCCc1cc(-c2nc(-c3ccc(C)cc3)c(C(=O)OC)s2)ccn1` [Compound 39, methyl 2-(2-propylpyridin-4-yl)-4-p-tolylthiazole-5-carboxylate], 14.93.

The same assay, now with this note: entries 1, 40-44 (FIG. 17); None = 8.2181.
For `CCCc1cc(-c2nc(-c3ccc(NC(=O)OC(C)(C)C)cc3)cs2)ccn1` [Compound 40, tert-butyl 4-(2-(2-propylpyridin-4-yl)thiazol-4-yl)phenylcarbamate], the Luc/Gal was determined as 2.4390. In turn, `CCCc1cc(-c2nc(-c3ccc(NC4CCCCC4)cc3)cs2)ccn1` [Compound 41, N-cyclohexyl-4-(2-(2-propylpyridin-4-yl)thiazol-4-yl)benzenamine] had a Luc/Gal of 6.5229.

Take `CCCc1cc(-c2nc(-c3ccc(NS(=O)(=O)c4ccc(C)cc4)cc3)cs2)ccn1` [Compound 42, 4-(2-(2-propylpyridin-4-yl)thiazol-4-yl)-N-tosylbenzenamine]: the Luc/Gal is 3.3957. Still for that read-out and setting: to `CCCc1cc(-c2nc(-c3ccc(NS(=O)(=O)c4cccc5cccnc45)cc3)cs2)ccn1` [Compound 43, N-(4-(2-(2-propylpyridin-4-yl)thiazol-4-yl)phenyl)-8-quinolinesulfonamide] belongs 2.8506; to `CCCc1cc(-c2nc(-c3ccc(NS(=O)(=O)c4cccs4)cc3)cs2)ccn1` [Compound 44, N-(4-(2-(2-propylpyridin-4-yl)thiazol-4-yl)phenyl)-2-thiophenesulfonamide], 1.8538.

Still in this assay, the particulars now being: entries 1-18 (FIG. 15); none = 9.4426.
`CCCc1cc(-c2nc(-c3ccc(Br)cc3)cs2)ccn1` [Compound 2, 4-(4-(4-bromophenyl)thiazol-2-yl)-2-propylpyridine]: the Luc/Gal is on record as 4.5130. The same measure, in the same setting: for `CCCc1cc(-c2nc(-c3ccccc3)cs2)ccn1` [Compound 3, 4-(4-phenylthiazol-2-yl)-2-propylpyridine] the value was 7.4643; for `CCCc1cc(-c2nc(-c3ccc(Cl)cc3)cs2)ccn1` [Compound 4, 4-(4-(4-chlorophenyl)thiazol-2-yl)-2-propylpyridine], 6.3808. On the same count and under the same terms, to `CCc1ccc(-c2csc(-c3ccncc3)n2)cc1` [Compound 5, 4-(4-(4-ethylphenyl)thiazol-2-yl)pyridine] belongs 7.6190; to `Cc1ccc(-c2csc(-c3ccncc3)n2)cc1` [Compound 6, 4-(4-p-tolylthiazol-2-yl)pyridine], 13.4689.

The compound `COc1ccc(-c2csc(-c3ccncc3)n2)cc1` [Compound 7, 4-(4-(4-methoxyphenyl)thiazol-2-yl)pyridine] had a Luc/Gal of 18.3174. Still for that read-out and setting: to `CCCc1cc(-c2nc(-c3ccc(OC(=O)c4ccccc4)cc3)cs2)ccn1` [Compound 8, 4-(2-(2-propylpyridin-4-yl)thiazol-4-yl)phenylbenzoate] belongs 7.7585; to `CCCc1cc(-c2nc(-c3ccc(O)cc3)cs2)ccn1` [Compound 9, 4-(2-(2-propylpyridin-4-yl)thiazol-4-yl)phenol], 14.5234.

Compound `CCCc1cc(-c2nc(-c3ccc(OCC(=O)OC)cc3)cs2)ccn1` [Compound 10, methyl 2-(4-(2-(2-propylpyridin-4-yl)thiazol-4-yl)phenoxy)acetate] yielded a Luc/Gal of 10.7717. `COc1ccc(-c2nc(-c3ccc(Cl)cc3)cs2)cc1OC` [Compound 12, 4-(4-chlorophenyl)-2-(3,4-dimethoxyphenyl)thiazole] gave a Luc/Gal of 5.9214.

As to `CCCc1cc(-c2nc(-c3ccc(Cl)c(Cl)c3)cs2)ccn1` [Compound 13, 4-(4-(3,4-dichlorophenyl)thiazol-2-yl)-2-propylpyridine], the Luc/Gal was 5.2391. Same read-out and setting: for `CCCc1cc(-c2nc(-c3ccc(F)cc3)cs2)ccn1` [Compound 14, 4-(4-(4-fluorophenyl)thiazol-2-yl)-2-propylpyridine] the value was 9.6605; for `CCCc1cc(-c2nc(-c3ccc(F)cc3F)cs2)ccn1` [Compound 15, 4-(4-(2,4-difluorophenyl)thiazol-2-yl)-2-propylpyridine], 10.8383. Still for that read-out and setting: to `CCCc1cc(-c2nc(-c3ccc(N)cc3)cs2)ccn1` [Compound 16, 4-(2-(2-propylpyridin-4-yl)thiazol-4-yl)benzenamine] belongs 10.3338; to `CCCc1cc(-c2nc(-c3ccc(NC(C)=O)cc3)cs2)ccn1` [Compound 18, N-(4-(2-(2-propylpyridin-4-yl)thiazol-4-yl)phenyl)acetamide], 11.7685.

Another assay has as its system 3T3-L1 cells. Briefly: adipogenesis assay (formation of oil droplets). Format: cell-based, mouse. More on the design: key: +: The analogues that completely inhibited the formation of oil droplets in cells were scored to be adipogenesis-inhibiting analogues. The conditions noted are these: formation of oil droplets in cells. Here is the method:
The adipogenesis assay was performed as described (Choi et al., 2003).
Take `CCCc1cc(-c2nc(-c3ccc(OC(=O)c4ccccc4)cc3)cs2)ccn1` [Compound 8, 4-(2-(2-propylpyridin-4-yl)thiazol-4-yl)phenylbenzoate]: the Inhibition of adipogenesis result is on record as “+”.

On to `CCCc1cc(-c2nc(-c3ccc(O)cc3)cs2)ccn1` [Compound 9, 4-(2-(2-propylpyridin-4-yl)thiazol-4-yl)phenol], for which the Inhibition of adipogenesis result is recorded as “+”.

With `CCCc1cc(-c2nc(-c3ccc(N)cc3)cs2)ccn1` [Compound 16, 4-(2-(2-propylpyridin-4-yl)thiazol-4-yl)benzenamine], the Inhibition of adipogenesis entry was “+”.

On to `CCCc1cc(-c2nc(-c3ccc(NC(C)=O)cc3)cs2)ccn1` [Compound 18, N-(4-(2-(2-propylpyridin-4-yl)thiazol-4-yl)phenyl)acetamide], for which the Inhibition of adipogenesis result is “+”.

For the origin of these results see patent publication US9713613B2, “Methods and compositions for the treatment of cancer and related hyperproliferative disorders” (priority 2007, dated 2017).
